Source: ChEMBL document CHEMBL5365497, “Developing Novel Coumarin-Containing Azoles Antifungal Agents by the Scaffold Merging Strategy for Treating Azole-Resistant Candidiasis” (J Med Chem, 2023)
Converted amounts (≈) assume the structure as drawn. The source made the active and inactive calls. The rule behind the calls is not given here.

Legend:
[1] = system: Candida albicans; test: Antifungal activity against Candida albicans CPCC400616 assessed as fungal growth inhibition by CLSI based microdilution method; assay type: functional
[2] = system: Candida albicans; test: Antifungal activity against Candida albicans SC5314 assessed as fungal growth inhibition by CLSI based microdilution method; assay type: functional
[3] = system: Candida parapsilosis; test: Antifungal activity against Candida parapsilosis assessed as fungal growth inhibition by CLSI based microdilution method; assay type: functional; details: Lodderomyces parapsilosis
[4] = system: Nakaseomyces glabratus; test: Antifungal activity against Candida glabrata assessed as fungal growth inhibition by CLSI based microdilution method; assay type: functional
[5] = system: Pichia kudriavzevii; test: Antifungal activity against Pichia kudriavzevii assessed as fungal growth inhibition by CLSI based microdilution method; assay type: functional
[6] = system: Candida tropicalis; test: Antifungal activity against Candida tropicalis assessed as fungal growth inhibition by CLSI based microdilution method; assay type: functional
[7] = system: Cryptococcus neoformans; test: Antifungal activity against Cryptococcus neoformans assessed as fungal growth inhibition by CLSI based microdilution method; assay type: functional
[8] = target: T1, Lanosterol 14-alpha demethylase (Candida albicans (strain SC5314 / ATCC MYA-2876) (Yeast), UniProt P10613); test: Inhibition of CYP51 in Candida albicans SC5314 assessed as ergosterol level at 0.03125 ug/ml incubated for 24 hrs by GC-MS analysis (reference value: 97.58 %); design: scale not given: the % may be the effect or the level left; details: at 0.03125 µg/mL
T1 sequence (P10613 whole entry): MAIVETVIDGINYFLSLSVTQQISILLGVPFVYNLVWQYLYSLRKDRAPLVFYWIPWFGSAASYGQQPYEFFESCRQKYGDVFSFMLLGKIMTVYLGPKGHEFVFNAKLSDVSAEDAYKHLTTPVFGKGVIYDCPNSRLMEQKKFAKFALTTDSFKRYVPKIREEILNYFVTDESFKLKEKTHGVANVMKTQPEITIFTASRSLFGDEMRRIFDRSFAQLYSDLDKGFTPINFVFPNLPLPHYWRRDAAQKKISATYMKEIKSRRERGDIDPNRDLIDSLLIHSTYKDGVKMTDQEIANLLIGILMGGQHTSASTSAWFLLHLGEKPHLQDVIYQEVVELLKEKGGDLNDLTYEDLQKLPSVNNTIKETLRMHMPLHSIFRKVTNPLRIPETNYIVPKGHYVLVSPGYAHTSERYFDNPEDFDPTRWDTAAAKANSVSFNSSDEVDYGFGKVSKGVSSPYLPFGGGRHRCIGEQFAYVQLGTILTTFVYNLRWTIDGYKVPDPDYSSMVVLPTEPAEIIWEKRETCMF

[9] = target: T1, Lanosterol 14-alpha demethylase; test: Inhibition of CYP51 in Candida albicans SC5314 assessed as increase in eburicol level at 0.03125 ug/ml incubated for 24 hrs by GC-MS analysis; details: at 0.03125 µg/mL
[10] = target: T1, Lanosterol 14-alpha demethylase; test: Inhibition of CYP51 in Candida albicans SC5314 assessed as increase in obtusifoliol level at 0.03125 ug/ml incubated for 24 hrs by GC-MS analysis; details: at 0.03125 µg/mL
[11] = target: T1, Lanosterol 14-alpha demethylase; test: Inhibition of CYP51 in Candida albicans SC5314 assessed as increase in lanosterol level at 0.03125 ug/ml incubated for 24 hrs by GC-MS analysis; details: at 0.03125 µg/mL
[12] = system: Candida albicans; test: Antifungal activity against fluconazole-resistant Candida albicans CaR assessed as fungal growth inhibition by CLSI based microdilution method; assay type: functional
[13] = system: Candida albicans; test: Antifungal activity against fluconazole-resistant Candida albicans 17# assessed as fungal growth inhibition by CLSI based microdilution method; assay type: functional
[14] = system: Candida albicans; test: Antifungal activity against fluconazole-resistant Candida albicans 632 assessed as fungal growth inhibition by CLSI based microdilution method; assay type: functional
[15] = system: Candida albicans; test: Antifungal activity against fluconazole-resistant Candida albicans 904 assessed as fungal growth inhibition by CLSI based microdilution method; assay type: functional
[16] = system: Candida albicans; test: Antifungal activity against fluconazole-resistant Candida albicans 901 assessed as fungal growth inhibition by CLSI based microdilution method; assay type: functional
[17] = system: Candida albicans; test: Antifungal activity against Candida albicans CPCC400616 assessed as inhibition of yeast to hypha morphological transition at 2 ug/ml incubated for 4 hrs by inverted microscopy; assay type: functional, organism-based; details: dose 2.0 µg/ml
[18] = system: Candida albicans; test: Antifungal activity against fluconazole-resistant Candida albicans 904 assessed as inhibition of yeast to hypha morphological transition at 16 ug/ml incubated for 4 hrs by inverted microscopy; assay type: functional, organism-based; details: dose 16.0 µg/ml
[19] = system: Candida albicans; test: Antibiofilm activity against Candida albicans CPCC400616 incubated for 24 hrs by XTT reduction assay; assay type: functional, organism-based; details: dose <= 128.0 µg/ml
[20] = system: Candida albicans; test: Antibiofilm activity against fluconazole-resistant Candida albicans 904 incubated for 24 hrs by XTT reduction assay; assay type: functional, organism-based; details: dose <= 128.0 µg/ml
[21] = system: Candida albicans; test: Antifungal activity against Candida albicans CPCC400616 assessed as reduction in EFG1 expression at 2 ug/ml incubated for 12 hrs by RT-PCR analysis; assay type: functional, organism-based; details: dose 2.0 µg/ml
[22] = system: Candida albicans; test: Antifungal activity against fluconazole-resistant Candida albicans 904 assessed as reduction in EFG1 expression at 16 ug/ml incubated for 12 hrs by RT-PCR analysis; assay type: functional, organism-based; details: dose 16.0 µg/ml
[23] = system: Candida albicans; test: Antifungal activity against Candida albicans CPCC400616 assessed as reduction in TEC1 expression at 2 ug/ml incubated for 12 hrs by RT-PCR analysis; assay type: functional, organism-based; details: dose 2.0 µg/ml
[24] = system: Candida albicans; test: Antifungal activity against fluconazole-resistant Candida albicans 904 assessed as reduction in TEC1 expression at 16 ug/ml incubated for 12 hrs by RT-PCR analysis; assay type: functional, organism-based; details: dose 16.0 µg/ml
[25] = system: Candida albicans; test: Antifungal activity against Candida albicans CPCC400616 assessed as reduction in CPH1 expression at 2 ug/ml incubated for 12 hrs by RT-PCR analysis; assay type: functional, organism-based; details: dose 2.0 µg/ml
[26] = system: Candida albicans; test: Antifungal activity against fluconazole-resistant Candida albicans 904 assessed as reduction in CPH1 expression at 16 ug/ml incubated for 12 hrs by RT-PCR analysis; assay type: functional, organism-based; details: dose 16.0 µg/ml
[27] = system: Candida albicans; test: Antifungal activity against Candida albicans CPCC400616 assessed as reduction in ALS3 expression at 2 ug/ml incubated for 12 hrs by RT-PCR analysis; assay type: functional, organism-based; details: dose 2.0 µg/ml
[28] = system: Candida albicans; test: Antifungal activity against fluconazole-resistant Candida albicans 904 assessed as reduction in ALS3 expression at 16 ug/ml incubated for 12 hrs by RT-PCR analysis; assay type: functional, organism-based; details: dose 16.0 µg/ml
[29] = system: Candida albicans; test: Antifungal activity against fluconazole-resistant Candida albicans 904 assessed as decrease in ERG11 expression at 16 ug/ml measured after 16 hrs by RT-PCR analysis; assay type: functional, organism-based; details: dose 16.0 µg/ml
[30] = system: Candida albicans; test: Antifungal activity against fluconazole-resistant Candida albicans 904 assessed as decrease in CDR1 expression at 16 ug/ml measured after 16 hrs by RT-PCR analysis; assay type: functional, organism-based; details: dose 16.0 µg/ml
[31] = system: Candida albicans; test: Antifungal activity against fluconazole-resistant Candida albicans 904 assessed as decrease in CDR2 expression at 16 ug/ml measured after 16 hrs by RT-PCR analysis; assay type: functional, organism-based; details: dose 16.0 µg/ml
[32] = system: Candida albicans; test: Antifungal activity against fluconazole-resistant Candida albicans 904 assessed as decrease in MDR1 expression at 16 ug/ml measured after 16 hrs by RT-PCR analysis; assay type: functional, organism-based; details: dose 16.0 µg/ml
[33] = system: Candida albicans; test: Induction of ROS production in fluconazole-resistant Candida albicans 904 at 64 ug/ml incubated for 30 mins by fluorescence microscopy; assay type: functional, organism-based; details: dose 64.0 µg/ml
[34] = Metabolic stability in mouse liver microsomes assessed as half life incubated for 5 to 60 mins by LC-MS/MS analysis; assay type: ADME, Microsome; details: time 5-60 min
[35] = Stability in mouse plasma assessed as compound remaining at 1 uM measured for 180 mins by LC-MS/MS analysis; assay type: ADME, cell-free; details: read-out: Stability
[36] = Stability in mouse plasma assessed as half life at 1 uM measured for 180 mins by LC-MS/MS analysis; assay type: ADME, cell-free
[37] = Cytotoxicity against mouse J774.A1 cells assessed as cell growth inhibition by MTT assay; assay type: toxicity, cell-based
[38] = system: Candida albicans; test: Antifungal activity against Candida albicans SC5314 assessed as destruction of cell membrane at 16 ug/ml incubated for 24 hrs by TEM analysis; assay type: functional, organism-based; details: dose 16.0 µg/ml
[39] = system: Candida albicans; test: Antifungal activity against Candida albicans SC5314 assessed as fragmented nuclei at 16 ug/ml incubated for 24 hrs by TEM analysis; assay type: functional, organism-based; details: dose 16.0 µg/ml
[40] = system: Candida albicans; test: Antifungal activity against Candida albicans SC5314 assessed as destruction of cell wall at 16 ug/ml incubated for 24 hrs by TEM analysis; assay type: functional, organism-based; details: dose 16.0 µg/ml
[41] = system: Candida albicans; test: Antifungal activity against fluconazole-resistant Candida albicans 904 assessed as fungal growth inhibition measured for 48 hrs by CLSI based microdilution method; assay type: functional

O=c1oc2ccccc2cc1COC(Cn1ccnc1)c1ccc(Cl)cc1Cl (stereo not drawn)
MIC [1]: 0.06 µg/mL (≈ 0.144 µM) | MIC [2]: 0.03 µg/mL (≈ 0.0722 µM) | MIC [3]: < 0.25 µg/mL | MIC [4]: 1 µg/mL (≈ 2.41 µM) | MIC [5]: 0.25 µg/mL (≈ 0.602 µM) | MIC [6]: 0.5 µg/mL (≈ 1.2 µM) | MIC [7]: 0.015 µg/mL (≈ 0.0361 µM) | Activity [8]: 16.17% | inhibition (INH) [9]: Active | inhibition (INH) [10]: Active | inhibition (INH) [11]: Active | MIC [12]: 0.5 µg/mL (≈ 1.2 µM) | MIC [13]: 8 µg/mL (≈ 19.3 µM) | MIC [14]: 8 µg/mL (≈ 19.3 µM) | MIC [15]: 2 µg/mL (≈ 4.82 µM) | MIC [16]: 4 µg/mL (≈ 9.63 µM) | inhibition [17]: Active | inhibition [18]: Active | Activity [19]: Dose-Dependent Effect | Activity [20]: Dose-Dependent Effect | Activity [21]: Active | Activity [22]: Active | Activity [23]: Active | Activity [24]: Active | Activity [25]: Active | Activity [26]: Active | Activity [27]: Active | Activity [28]: Active | Activity [29]: Active | Activity [30]: Active | Activity [31]: Active | Activity [32]: Active | Activity [33]: Active | half-life [34]: 2.8 min | remaining at 3 h, 1 µM [35]: 2.2% | half-life at 1 µM [36]: 34 min | IC50 [37]: 24.4 µM

OC(Cn1cncn1)(Cn1cncn1)c1ccc(F)cc1F [FLUCONAZOLE]
MIC [1]: 4 µg/mL (≈ 13.1 µM) | MIC [2]: 0.5 µg/mL (≈ 1.63 µM) | MIC [3]: 4 µg/mL (≈ 13.1 µM) | MIC [4]: 32 µg/mL (≈ 104 µM) | MIC [5]: 32 µg/mL (≈ 104 µM) | MIC [6]: 2 µg/mL (≈ 6.53 µM) | MIC [7]: 4 µg/mL (≈ 13.1 µM) | Activity [38]: Active | Activity [39]: Active | Activity [40]: inactive | MIC [12]: > 128 µg/mL | MIC [13]: > 128 µg/mL | MIC [14]: > 128 µg/mL | MIC [15]: > 128 µg/mL | MIC [16]: > 128 µg/mL | MFC [41]: > 128 µg/mL
